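Briefly, cells in 96-well plates were exposed to five compound concentrations for 48 h, and endpoints were estimated by linear interpolation. The concentration for 50% growth inhibition is given as GI50. TGI: concentration producing complete growth inhibition.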
Tests used:
Assay in all cases: NCI anticancer screen, dose series, 48 h
[1] = tested on: 786-0 renal
[2] = tested on: A498 renal
[3] = tested on: A549 NSCLC
[4] = tested on: ACHN renal
[5] = tested on: BT-549 breast
[6] = tested on: CAKI-1 renal
[7] = tested on: CCRF-CEM leukemia
[8] = tested on: COLO 205 colon
[9] = tested on: DU-145 prostate
[10] = tested on: EKVX NSCLC
[11] = tested on: HCC-2998 colon
[12] = tested on: HCT-116 colon
[13] = tested on: HCT-15 colon
[14] = tested on: HL-60(TB) leukemia
[15] = tested on: HOP-62 NSCLC
[16] = tested on: HOP-92 NSCLC
[17] = tested on: HS 578T breast
[18] = tested on: HT29 colon
[19] = tested on: IGROV1 ovarian
[20] = tested on: K-562 leukemia
[21] = tested on: KM12 colon
[22] = tested on: LOX IMVI melanoma
[23] = tested on: M14 melanoma
[24] = tested on: MALME-3M melanoma
[25] = tested on: MCF7 breast
[26] = tested on: MDA-MB-231 breast
[27] = tested on: MDA-MB-435
[28] = tested on: MOLT-4 leukemia
[29] = tested on: NCI-H226 lung
[30] = tested on: NCI-H23 lung
[31] = tested on: NCI-H460 lung
[32] = tested on: NCI-H522 lung
[33] = tested on: NCI/ADR-RES ovarian
[34] = tested on: OVCAR-3 ovarian
[35] = tested on: OVCAR-4 ovarian
[36] = tested on: OVCAR-5 ovarian
[37] = tested on: OVCAR-8 ovarian
[38] = tested on: PC-3 prostate
[39] = tested on: RPMI-8226 leukemia
[40] = tested on: RXF 393 renal
[41] = tested on: SF-268 CNS
[42] = tested on: SF-295 CNS
[43] = tested on: SF-539 CNS
[44] = tested on: SK-MEL-2 melanoma
[45] = tested on: SK-MEL-28 melanoma
[46] = tested on: SK-MEL-5 melanoma
[47] = tested on: SK-OV-3 ovarian
[48] = tested on: SN12C renal
[49] = tested on: SNB-19 CNS
[50] = tested on: SNB-75 CNS
[51] = tested on: SR leukemia
[52] = tested on: SW-620 colon
[53] = tested on: T-47D breast
[54] = tested on: TK-10 renal
[55] = tested on: U251 CNS
[56] = tested on: UACC-257 melanoma
[57] = tested on: UACC-62 melanoma
[58] = tested on: UO-31 renal

In the case of Cc1cc(C(NC(=O)CCCCCNc2cccc3c2C(=O)N(C2CCC(=O)NC2=O)C3=O)c2cccnc2)c(O)c2ncccc12 (stereo not drawn), the GI50 [1] is reported as 164 nM, the TGI [1] is reported as 14700 nM and the GI50 [2] is reported as 202 nM. The TGI [2] was 6520 nM, the GI50 [3] was 734 nM and the TGI [3] was 28000 nM. The GI50 [4] was 3580 nM, the TGI [4] was > 59500 nM and the GI50 [5] was < 12.8 nM. The TGI [5] was 39.2 nM, the GI50 [6] was 471 nM and the TGI [6] was 16700 nM. The GI50 [7] was < 10 nM, the TGI [7] was > 100000 nM and the GI50 [8] was 28.8 nM. For the same compound, the TGI [8] was 1670 nM, the GI50 [9] was 1920 nM and the TGI [9] was > 100000 nM. The GI50 [10] was 809 nM, the TGI [10] was > 22500 nM and the GI50 [11] was 26.4 nM. The TGI [11] was 2450 nM, the GI50 [12] was 1520 nM and the TGI [12] was > 100000 nM. For the same compound, the GI50 [13] was 228 nM, the TGI [13] was > 100000 nM and the GI50 [14] was < 13.4 nM. The TGI [14] was 35.5 nM, the GI50 [15] was 21.4 nM and the TGI [15] was 685 nM. For the same compound, the GI50 [16] was < 12.1 nM, the TGI [16] was 304 nM and the GI50 [17] was 18.4 nM. The TGI [17] was 7090 nM, the GI50 [18] was 446 nM and the TGI [18] was > 100000 nM. It also gave a GI50 [19] of 27.2 nM, a TGI [19] of 3800 nM and a GI50 [20] of 1210 nM. The TGI [20] was > 100000 nM, the GI50 [21] was 199 nM and the TGI [21] was 21300 nM. The GI50 [22] was 856 nM, the TGI [22] was 12400 nM and the GI50 [23] was 100 nM. The TGI [23] was 4990 nM, the GI50 [24] was < 10 nM and the TGI [24] was 22.4 nM. It also gave a GI50 [25] of 62.5 nM, a TGI [25] of 14000 nM and a GI50 [26] of 13.6 nM. The TGI [26] was 193 nM, the GI50 [27] was 2350 nM and the TGI [27] was > 100000 nM. The GI50 [28] was < 10 nM, the TGI [28] was 156 nM and the GI50 [29] was 32.4 nM. The TGI [29] was 961 nM, the GI50 [30] was 1800 nM and the TGI [30] was 43800 nM. The GI50 [31] was 1510 nM, the TGI [31] was 28100 nM and the GI50 [32] was 639 nM. For the same compound, the GI50 [33] was 13400 nM, the TGI [33] was > 100000 nM and the GI50 [34] was 252 nM. For the same compound, the TGI [34] was 15600 nM, the GI50 [35] was 22.1 nM and the TGI [35] was 325 nM. For the same compound, the GI50 [36] was 637 nM, the TGI [36] was > 100000 nM and the GI50 [37] was < 16.3 nM. For the same compound, the TGI [37] was 8330 nM, the GI50 [38] was 20.7 nM and the GI50 [39] was 1350 nM. The TGI [39] was > 100000 nM, the GI50 [40] was 221 nM and the TGI [40] was 2280 nM. For the same compound, the GI50 [41] was 112 nM, the TGI [41] was 18800 nM and the GI50 [42] was 291 nM. It also gave a TGI [42] of 8140 nM, a GI50 [43] of 933 nM and a TGI [43] of 8950 nM. For the same compound, the GI50 [44] was 485 nM, the TGI [44] was 11400 nM and the GI50 [45] was 904 nM. For the same compound, the TGI [45] was > 74900 nM, the GI50 [46] was 52.5 nM and the TGI [46] was 999 nM. It also gave a GI50 [47] of 222 nM, a TGI [47] of 3920 nM and a GI50 [48] of 50.1 nM. For the same compound, the GI50 [49] was 273 nM, the TGI [49] was > 100000 nM and the GI50 [50] was 20.8 nM. The TGI [50] was 5320 nM, the GI50 [51] was 433 nM and the TGI [51] was > 54200 nM. For the same compound, the GI50 [52] was 21 nM, the TGI [52] was > 100000 nM and the GI50 [53] was 10.3 nM. The TGI [53] was 5120 nM, the GI50 [54] was 413 nM and the TGI [54] was > 100000 nM. The GI50 [55] was 641 nM, the TGI [55] was > 100000 nM and the GI50 [56] was 2090 nM. For the same compound, the TGI [56] was > 27600 nM, the GI50 [57] was 1810 nM and the TGI [57] was 6350 nM. The GI50 [58] was 362 nM and the TGI [58] was 34400 nM.
